According to the supplement of paper PMC13207355:

How the values were obtained:
Conditions in all cases: exposure time: 72 h
E21 [1] = patient-derived glioblastoma stem cells of mesenchymal subtype; assay: phenotypic distance (Euclidean, principal components) from DMSO controls (arbitrary units); higher = stronger morphological change
E28 [2] = patient-derived glioblastoma stem cells of classical subtype; assay: as above
E34 [3] = patient-derived glioblastoma stem cells of proneural subtype; assay: as above
FT3469 [4] = normal neural stem cell line; assay: as above
E13 [5] = patient-derived glioblastoma stem cells of classical subtype; assay: as above
E57 [6] = patient-derived glioblastoma stem cells of mesenchymal subtype; assay: as above
E21 [7] = assay: surviving fraction (nuclei count normalised to DMSO); higher = more cells surviving (less toxic)
E28 [8] = assay: as above
E34 [9] = assay: as above
FT3469 [10] = assay: as above
E13 [11] = assay: as above
E57 [12] = assay: as above
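Throughout, for phenotypic distance (Euclidean, principal components) from DMSO controls: cell Painting imaging in 384-well plates, CellProfiler features reduced to at least 20 principal components, Euclidean distance versus same-plate DMSO vehicle wells (0.1% v/v), median over six images per well.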
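Throughout, for surviving fraction (nuclei count normalised to DMSO): nuclei counted by high-content imaging of Hoechst-stained cells in laminin-coated 384-well plates, relative to 0.1% DMSO vehicle wells, with staurosporine as cell-death control.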

CC(C)C[C@H](NC(=O)[C@H](Cc1ccccc1)C[C@@H](O)[C@H](Cc1ccccc1)NC(=O)OC(C)(C)C)C(=O)N[C@@H](Cc1ccccc1)C(N)=O [L-685,458]
Conditions	phenotypic distance	surviving fraction
E13 [5], 4.1 nM	0.562	–
E13 [5], 4.11523 nM	0.913	–
E13 [5], 12.3 nM	0.877	–
E13 [5], 12.34567901 nM	0.727	–
E13 [5], 37 nM	0.594	–
E13 [5], 37.037 nM	0.991	–
E13 [5], 111.1 nM	0.891	–
E13 [5], 111.1111111 nM	2.26	–
E13 [5], 333.3 nM	0.794	–
E13 [5], 333.333 nM	0.929	–
E13 [5], 1000 nM	1.66	–
E13 [5], 3000 nM	0.881	–
E13 [11], 4.1 nM	–	1.06
E13 [11], 4.11523 nM	–	1.16
E13 [11], 12.3 nM	–	1.04
E13 [11], 12.34567901 nM	–	1.1
E13 [11], 37 nM	–	1.01
E13 [11], 37.037 nM	–	0.999
E13 [11], 111.1 nM	–	1.18
E13 [11], 111.1111111 nM	–	1.01
E13 [11], 333.3 nM	–	1.02
E13 [11], 333.333 nM	–	1.09
E13 [11], 1000 nM	–	1.14
E13 [11], 3000 nM	–	1.01
E21 [1], 4.1 nM	0.782	–
E21 [1], 4.11523 nM	0.593	–
E21 [1], 12.3 nM	0.577	–
E21 [1], 12.34567901 nM	0.764	–
E21 [1], 37 nM	0.535	–
E21 [1], 37.037 nM	0.752	–
E21 [1], 111.1 nM	0.68	–
E21 [1], 111.1111111 nM	0.628	–
E21 [1], 333.3 nM	0.73	–
E21 [1], 333.333 nM	0.786	–
E21 [1], 1000 nM	0.724	–
E21 [1], 3000 nM	0.836	–
E21 [7], 4.1 nM	–	0.96
E21 [7], 4.11523 nM	–	0.891
E21 [7], 12.3 nM	–	0.969
E21 [7], 12.34567901 nM	–	0.958
E21 [7], 37 nM	–	0.95
E21 [7], 37.037 nM	–	0.941
E21 [7], 111.1 nM	–	1.03
E21 [7], 111.1111111 nM	–	1.03
E21 [7], 333.3 nM	–	0.861
E21 [7], 333.333 nM	–	1.04
E21 [7], 1000 nM	–	1.05
E21 [7], 3000 nM	–	0.948
E28 [2], 4.1 nM	0.474	–
E28 [2], 4.11523 nM	0.565	–
E28 [2], 12.3 nM	0.894	–
E28 [2], 12.34567901 nM	0.663	–
E28 [2], 37 nM	0.847	–
E28 [2], 37.037 nM	0.502	–
E28 [2], 111.1 nM	0.482	–
E28 [2], 111.1111111 nM	0.958	–
E28 [2], 333.3 nM	0.937	–
E28 [2], 333.333 nM	0.39	–
E28 [2], 1000 nM	0.79	–
E28 [2], 3000 nM	0.756	–
E28 [8], 4.1 nM	–	0.997
E28 [8], 4.11523 nM	–	1.1
E28 [8], 12.3 nM	–	1.15
E28 [8], 12.34567901 nM	–	0.885
E28 [8], 37 nM	–	0.825
E28 [8], 37.037 nM	–	1.02
E28 [8], 111.1 nM	–	1.11
E28 [8], 111.1111111 nM	–	0.813
E28 [8], 333.3 nM	–	0.795
E28 [8], 333.333 nM	–	1.02
E28 [8], 1000 nM	–	0.858
E28 [8], 3000 nM	–	0.834
E34 [3], 4.1 nM	1.11	–
E34 [3], 4.11523 nM	0.526	–
E34 [3], 12.3 nM	0.954	–
E34 [3], 12.34567901 nM	0.619	–
E34 [3], 37 nM	0.627	–
E34 [3], 37.037 nM	0.56	–
E34 [3], 111.1 nM	0.75	–
E34 [3], 111.1111111 nM	0.762	–
E34 [3], 333.3 nM	1.1	–
E34 [3], 333.333 nM	0.452	–
E34 [3], 1000 nM	0.948	–
E34 [3], 3000 nM	1.12	–
E34 [9], 4.1 nM	–	0.787
E34 [9], 4.11523 nM	–	0.957
E34 [9], 12.3 nM	–	1.02
E34 [9], 12.34567901 nM	–	0.895
E34 [9], 37 nM	–	0.964
E34 [9], 37.037 nM	–	1.09
E34 [9], 111.1 nM	–	0.946
E34 [9], 111.1111111 nM	–	0.976
E34 [9], 333.3 nM	–	0.746
E34 [9], 333.333 nM	–	1.15
E34 [9], 1000 nM	–	1
E34 [9], 3000 nM	–	0.924
E57 [6], 4.1 nM	0.808	–
E57 [6], 4.11523 nM	1.06	–
E57 [6], 12.3 nM	1.19	–
E57 [6], 12.34567901 nM	0.938	–
E57 [6], 37 nM	1.05	–
E57 [6], 37.037 nM	0.959	–
E57 [6], 111.1 nM	1.22	–
E57 [6], 111.1111111 nM	0.783	–
E57 [6], 333.3 nM	0.893	–
E57 [6], 333.333 nM	1.03	–
E57 [6], 1000 nM	1.1	–
E57 [6], 3000 nM	1.07	–
E57 [12], 4.1 nM	–	1.04
E57 [12], 4.11523 nM	–	0.963
E57 [12], 12.3 nM	–	0.967
E57 [12], 12.34567901 nM	–	0.988
E57 [12], 37 nM	–	0.958
E57 [12], 37.037 nM	–	0.998
E57 [12], 111.1 nM	–	1.01
E57 [12], 111.1111111 nM	–	1.03
E57 [12], 333.3 nM	–	1.08
E57 [12], 333.333 nM	–	0.989
E57 [12], 1000 nM	–	1.04
E57 [12], 3000 nM	–	1
FT3469 [4], 4.1 nM	0.822	–
FT3469 [4], 4.11523 nM	0.544	–
FT3469 [4], 12.3 nM	0.633	–
FT3469 [4], 12.34567901 nM	0.898	–
FT3469 [4], 37 nM	0.582	–
FT3469 [4], 37.037 nM	0.598	–
FT3469 [4], 111.1 nM	1.41	–
FT3469 [4], 111.1111111 nM	0.791	–
FT3469 [4], 333.3 nM	0.871	–
FT3469 [4], 333.333 nM	0.681	–
FT3469 [4], 1000 nM	0.906	–
FT3469 [4], 3000 nM	1.06	–
FT3469 [10], 4.1 nM	–	0.944
FT3469 [10], 4.11523 nM	–	0.979
FT3469 [10], 12.3 nM	–	1.02
FT3469 [10], 12.34567901 nM	–	0.858
FT3469 [10], 37 nM	–	0.9
FT3469 [10], 37.037 nM	–	1.03
FT3469 [10], 111.1 nM	–	0.901
FT3469 [10], 111.1111111 nM	–	0.984
FT3469 [10], 333.3 nM	–	0.882
FT3469 [10], 333.333 nM	–	0.884
FT3469 [10], 1000 nM	–	0.867
FT3469 [10], 3000 nM	–	0.838
